We go through six molecules from ChEMBL document CHEMBL3244120, “Monomethylthio analogues of 1-(2,4,5-trimethoxyphenyl)-2-aminopropane” (J Med Chem, 1977).

Data set [1] deals with Oryctolagus cuniculus. As to the kind of experiment: Hyperthermic activity in New Zealand rabbit assessed as mean maximum rise in rectal temperature at 0.25 to 21.2 umol/kg administered in marginal ear vein as solution of amine hydrochloride in nonpyrogenic saline relative to l-(2,5-dimethoxy-4-methylphenyl)-2-aminopropane. The format is functional, Rectum.
Data set [2] has as its system Oryctolagus cuniculus. As to the kind of experiment: Hyperthermic activity in New Zealand rabbit assessed as increase in rectal temperature measured as time to reach peak effect at 7.1 umol/kg administered in marginal ear vein as solution of amine hydrochloride in nonpyrogenic saline. It counts as functional, Rectum.
Data set [3] has as its system Brain. Kind of data set: Drug uptake in Sprague-Dawley rat brain assessed as R to S enantiomeric ratio at 30 mg/kg, ip after 60 mins by electron-capture gas chromatographic analysis. The format is ADME, organism-based. The arrangement: dose 30 mg/kg, route intraperitoneal. The conditions noted are these: in vivo, 1 h.
Data set [4] deals with Oryctolagus cuniculus. As to the kind of experiment: Hyperthermic activity in New Zealand rabbit assessed as increase in rectal temperature measured as time to reach peak effect at 14.2 umol/kg administered in marginal ear vein as solution of amine hydrochloride in nonpyrogenic saline. It counts as functional, Rectum.
In data set [5] the test system is Oryctolagus cuniculus. As to the kind of experiment: Hyperthermic activity in New Zealand rabbit assessed as mean maximum rise in rectal temperature at 7.1 umol/kg administered in marginal ear vein as solution of amine hydrochloride in nonpyrogenic saline. The format is functional, Rectum.
Data set [6] concerns Oryctolagus cuniculus. As to the kind of experiment: Hyperthermic activity in New Zealand rabbit at 0.25 to 21.2 umol/kg administered in marginal ear vein as solution of amine hydrochloride in nonpyrogenic saline by time-temperature curve integration method relative to l-(2,5-dimethoxy-4-methylphenyl)-2-aminopropane. It counts as functional.
Data set [7] has as its system Brain. Kind of data set: Drug uptake in Sprague-Dawley rat brain assessed as R to S enantiomeric ratio at 30 mg/kg, ip after 30 mins by electron-capture gas chromatographic analysis. It counts as ADME, organism-based. Set-up: dose 30 mg/kg, route intraperitoneal. The conditions noted are these: in vivo, 0.5 h.
Data set [8] deals with Oryctolagus cuniculus. Kind of data set: Hyperthermic activity in New Zealand rabbit assessed as mean maximum rise in rectal temperature at 14.2 umol/kg administered in marginal ear vein as solution of amine hydrochloride in nonpyrogenic saline. It counts as functional, Rectum.
In data set [9] the test system is Oryctolagus cuniculus. Kind of data set: Hyperthermic activity in New Zealand rabbit assessed as dose required for 1 degC rise in rectal temperature administered in marginal ear vein as solution of amine hydrochloride in nonpyrogenic saline. It counts as functional, Rectum.
Data set [10] has as its system Brain. Kind of data set: Drug uptake in Sprague-Dawley rat brain assessed as R to S enantiomeric ratio at 30 mg/kg, ip after 15 mins by electron-capture gas chromatographic analysis. The format is ADME, organism-based. The note with it: in vivo, 0.25 h. The arrangement: dose 30 mg/kg, route intraperitoneal.
Data set [11] concerns Oryctolagus cuniculus. As to the kind of experiment: Hyperthermic activity in New Zealand rabbit assessed as increase in rectal temperature measured as time to reach peak effect at 5.3 umol/kg administered in marginal ear vein as solution of amine hydrochloride in nonpyrogenic saline. It counts as functional, Rectum.
Data set [12] has as its system Oryctolagus cuniculus. As to the kind of experiment: Hyperthermic activity in New Zealand rabbit assessed as mean maximum rise in rectal temperature at 5.3 umol/kg administered in marginal ear vein as solution of amine hydrochloride in nonpyrogenic saline. The format is functional, Rectum.
In data set [13] the test system is Oryctolagus cuniculus. Kind of data set: Hyperthermic activity in New Zealand rabbit assessed as mean maximum rise in rectal temperature at 21.3 umol/kg administered in marginal ear vein as solution of amine hydrochloride in nonpyrogenic saline. The format is functional, Rectum.
Data set [14] relates to Oryctolagus cuniculus. Kind of data set: Hyperthermic activity in New Zealand rabbit assessed as mean maximum rise in rectal temperature at 10.6 umol/kg administered in marginal ear vein as solution of amine hydrochloride in nonpyrogenic saline. The format is functional, Rectum.
The subject of data set [15] is Oryctolagus cuniculus. As to the kind of experiment: Hyperthermic activity in New Zealand rabbit assessed as increase in rectal temperature measured as time to reach peak effect at 21.3 umol/kg administered in marginal ear vein as solution of amine hydrochloride in nonpyrogenic saline. The format is functional, Rectum.
The test system of data set [16] is Oryctolagus cuniculus. Kind of data set: Hyperthermic activity in New Zealand rabbit assessed as increase in rectal temperature measured as time to reach peak effect at 10.6 umol/kg administered in marginal ear vein as solution of amine hydrochloride in nonpyrogenic saline. The format is functional, Rectum.
For data set [17], the system named is Oryctolagus cuniculus. Kind of data set: Hyperthermic activity in New Zealand rabbit assessed as increase in rectal temperature measured as time to reach peak effect at 0.22 umol/kg administered in marginal ear vein as solution of amine hydrochloride in nonpyrogenic saline. It counts as functional, Rectum.
The test system of data set [18] is Oryctolagus cuniculus. Kind of data set: Hyperthermic activity in New Zealand rabbit assessed as mean maximum rise in rectal temperature at 2 umol/kg administered in marginal ear vein as solution of amine hydrochloride in nonpyrogenic saline. It counts as functional, Rectum.
For data set [19], the system named is Brain. As to the kind of experiment: Drug uptake in Sprague-Dawley rat brain assessed as R to S enantiomeric ratio at 30 mg/kg, ip after 120 mins by electron-capture gas chromatographic analysis. The format is ADME, organism-based. Set-up: dose 30 mg/kg, route intraperitoneal. The conditions noted are these: in vivo, 2 h.
Data set [20] has as its system Oryctolagus cuniculus. As to the kind of experiment: Hyperthermic activity in New Zealand rabbit assessed as increase in rectal temperature measured as time to reach peak effect at 0.67 umol/kg administered in marginal ear vein as solution of amine hydrochloride in nonpyrogenic saline. It counts as functional, Rectum.
The subject of data set [21] is Oryctolagus cuniculus. Kind of data set: Hyperthermic activity in New Zealand rabbit assessed as increase in rectal temperature measured as time to reach peak effect at 2 umol/kg administered in marginal ear vein as solution of amine hydrochloride in nonpyrogenic saline. It counts as functional, Rectum.
Data set [22] has as its system Oryctolagus cuniculus. As to the kind of experiment: Hyperthermic activity in New Zealand rabbit assessed as mean maximum rise in rectal temperature at 0.22 umol/kg administered in marginal ear vein as solution of amine hydrochloride in nonpyrogenic saline. It counts as functional, Rectum.
Data set [23] has as its system Oryctolagus cuniculus. As to the kind of experiment: Hyperthermic activity in New Zealand rabbit assessed as mean maximum rise in rectal temperature at 0.67 umol/kg administered in marginal ear vein as solution of amine hydrochloride in nonpyrogenic saline. It counts as functional, Rectum.
In data set [24] the test system is Brain. As to the kind of experiment: Drug uptake in Sprague-Dawley rat brain assessed as R to S enantiomeric ratio at 15 mg/kg, ip after 5 mins by electron-capture gas chromatographic analysis. The format is ADME, organism-based. Set-up: dose 15 mg/kg, route intraperitoneal. The note with it: in vivo.
Data set [25] deals with Oryctolagus cuniculus. Kind of data set: Hyperthermic activity in New Zealand rabbit assessed as increase in rectal temperature measured as time to reach peak effect at 0.50 umol/kg administered in marginal ear vein as solution of amine hydrochloride in nonpyrogenic saline. It counts as functional, Rectum.
Data set [26] relates to Oryctolagus cuniculus. As to the kind of experiment: Hyperthermic activity in New Zealand rabbit assessed as increase in rectal temperature measured as time to reach peak effect at 0.25 umol/kg administered in marginal ear vein as solution of amine hydrochloride in nonpyrogenic saline. It counts as functional, Rectum.
In data set [27] the test system is Brain. As to the kind of experiment: Drug uptake in Sprague-Dawley rat brain assessed as R to S enantiomeric ratio at 15 mg/kg, ip after 60 mins by electron-capture gas chromatographic analysis. The format is ADME, organism-based. The conditions noted are these: in vivo, 1 h. The arrangement: dose 15 mg/kg, route intraperitoneal.
Data set [28] relates to Brain. Kind of data set: Drug uptake in Sprague-Dawley rat brain assessed as R to S enantiomeric ratio at 15 mg/kg, ip after 30 mins by electron-capture gas chromatographic analysis. The conditions noted are these: in vivo, 0.5 h. The format is ADME, organism-based. The arrangement: dose 15 mg/kg, route intraperitoneal.
Data set [29] deals with Oryctolagus cuniculus. As to the kind of experiment: Hyperthermic activity in New Zealand rabbit assessed as mean maximum rise in rectal temperature at 0.50 umol/kg administered in marginal ear vein as solution of amine hydrochloride in nonpyrogenic saline. The format is functional, Rectum.
Data set [30] has as its system Brain. Kind of data set: Drug uptake in Sprague-Dawley rat brain assessed as R to S enantiomeric ratio at 15 mg/kg, ip after 15 mins by electron-capture gas chromatographic analysis. The format is ADME, organism-based. The arrangement: dose 15 mg/kg, route intraperitoneal. The note with it: in vivo, 0.25 h.
Data set [31] has as its system Oryctolagus cuniculus. Kind of data set: Hyperthermic activity in New Zealand rabbit assessed as mean maximum rise in rectal temperature at 0.25 umol/kg administered in marginal ear vein as solution of amine hydrochloride in nonpyrogenic saline. The format is functional, Rectum.
In data set [32] the test system is Oryctolagus cuniculus. As to the kind of experiment: Hyperthermic activity in New Zealand rabbit assessed as mean maximum rise in rectal temperature at 1 umol/kg administered in marginal ear vein as solution of amine hydrochloride in nonpyrogenic saline. The format is functional, Rectum.
For data set [33], the system named is Oryctolagus cuniculus. As to the kind of experiment: Hyperthermic activity in New Zealand rabbit assessed as increase in rectal temperature measured as time to reach peak effect at 1 umol/kg administered in marginal ear vein as solution of amine hydrochloride in nonpyrogenic saline. The format is functional, Rectum.
Data set [34] relates to Brain. As to the kind of experiment: Drug uptake in Sprague-Dawley rat brain assessed as R to S enantiomeric ratio at 15 mg/kg, ip after 120 mins by electron-capture gas chromatographic analysis. It counts as ADME, organism-based. Set-up: dose 15 mg/kg, route intraperitoneal. The note with it: in vivo, 2 h.

On to `COc1cc(CC(C)N)c(SC)cc1OC.Cl` (racemic), for which the “fold change (FC)” value in the data set on Oryctolagus cuniculus [1] amounted to 0.017; with Oryctolagus cuniculus [6] it was 0.022. For the same molecule, the Time in the data set with Oryctolagus cuniculus [2] is given as 105 min; in the data set with Oryctolagus cuniculus [4], 75 min. The Ratio in the data set on Brain [3] is given as 1.43; with Brain [7], 1.09; in the data set on Brain [10], 1.14. The T stood at 0.82 °C in the data set with Oryctolagus cuniculus [5] and 1.01 °C with Oryctolagus cuniculus [8]. The Activity with Oryctolagus cuniculus [9] worked out at 14 µmol/kg.

With `COc1cc(OC)c(SC)cc1CC(C)N.Cl` (racemic), the Time in the data set with Oryctolagus cuniculus [11] came to 120 min; in the data set on Oryctolagus cuniculus [15], 180 min; in the data set with Oryctolagus cuniculus [16] it was 135 min. In addition, the “fold change (FC)” value is given as 0.028 in the data set with Oryctolagus cuniculus [1] and 0.039 in the data set on Oryctolagus cuniculus [6]. Further, the results for the T with Oryctolagus cuniculus [12], in the data set with Oryctolagus cuniculus [13] and in the data set with Oryctolagus cuniculus [14] were 0.6 °C, 1.62 °C and 1.09 °C, respectively. Further, the Ratio in the data set with Brain [3] amounted to 1.35; in the data set with Brain [7], 1.11; in the data set with Brain [10], 1.1. The Activity in the data set on Oryctolagus cuniculus [9] was 9.77 µmol/kg.

In the case of `COc1cc(SC)c(OC)cc1CC(C)N.Cl` (racemic), the results for the “fold change (FC)” value in the data set with Oryctolagus cuniculus [1] and in the data set with Oryctolagus cuniculus [6] were 0.54 and 0.64, respectively. Moreover, the Time in the data set on Oryctolagus cuniculus [17] turned out to be 120 min; with Oryctolagus cuniculus [20] it was 165 min; in the data set on Oryctolagus cuniculus [21] it was 195 min. The Ratio in the data set on Brain [3] is recorded as 1.23; with Brain [7], 1.14; with Brain [19], 1.62; in the data set with Brain [10], 1.54. In addition, the T is 2.31 °C in the data set on Oryctolagus cuniculus [18], 0.6 °C with Oryctolagus cuniculus [22] and 1.15 °C in the data set with Oryctolagus cuniculus [23]. For the same molecule, the Activity with Oryctolagus cuniculus [9] came to 0.5 µmol/kg.

`COc1cc(CC(C)N)c(OC)cc1C.Cl` (racemic): the Ratio in the data set on Brain [24] is 0.95; in the data set on Brain [27], 1.55; in the data set with Brain [28] it was 1.46; in the data set with Brain [30] it was 1.06; in the data set on Brain [34], 1.34. The “fold change (FC)” value in the data set with Oryctolagus cuniculus [1] and in the data set on Oryctolagus cuniculus [6] was 1 throughout. Also, the Time in the data set on Oryctolagus cuniculus [25] is given as 195 min; in the data set with Oryctolagus cuniculus [26], 135 min; in the data set on Oryctolagus cuniculus [33], 165 min. In addition, the results for the T in the data set on Oryctolagus cuniculus [29], with Oryctolagus cuniculus [31] and in the data set on Oryctolagus cuniculus [32] were 1.98 °C, 0.8 °C and 2.85 °C, respectively. The Activity with Oryctolagus cuniculus [9] is 0.27 µmol/kg.

Turning to `CCN(CC)C(=O)[C@@H]1C=C2c3cccc4[nH]cc(c34)C[C@H]2N(C)C1` [LYSERGIDE], in the data set with Oryctolagus cuniculus [1], the “fold change (FC)” value is reported as 33.

With `COc1cc(CCN)cc(OC)c1OC` [MESCALINE], the “fold change (FC)” value with Oryctolagus cuniculus [1] worked out at 0.0006.
